In publication PMC11988775, “Glycyl-tRNA Synthetase as a Target for Antiviral Drug Screening Against Influenza Virus” (International Journal of Molecular Sciences, 2025):
Where two headings read alike, the source gives them in different places.

How the values were obtained:
GlyRS [1] = target: T1, GlyRS (Homo sapiens, UniProt P41250); test: Fluorescence-based thermal shift assay (TSA); assay type: binding; settings: shift between Tm of GlyRS with and without compound
T1 construct: made in house; host or cells: E. coli BL21(DE3)
T1 sequence (P41250 37-739): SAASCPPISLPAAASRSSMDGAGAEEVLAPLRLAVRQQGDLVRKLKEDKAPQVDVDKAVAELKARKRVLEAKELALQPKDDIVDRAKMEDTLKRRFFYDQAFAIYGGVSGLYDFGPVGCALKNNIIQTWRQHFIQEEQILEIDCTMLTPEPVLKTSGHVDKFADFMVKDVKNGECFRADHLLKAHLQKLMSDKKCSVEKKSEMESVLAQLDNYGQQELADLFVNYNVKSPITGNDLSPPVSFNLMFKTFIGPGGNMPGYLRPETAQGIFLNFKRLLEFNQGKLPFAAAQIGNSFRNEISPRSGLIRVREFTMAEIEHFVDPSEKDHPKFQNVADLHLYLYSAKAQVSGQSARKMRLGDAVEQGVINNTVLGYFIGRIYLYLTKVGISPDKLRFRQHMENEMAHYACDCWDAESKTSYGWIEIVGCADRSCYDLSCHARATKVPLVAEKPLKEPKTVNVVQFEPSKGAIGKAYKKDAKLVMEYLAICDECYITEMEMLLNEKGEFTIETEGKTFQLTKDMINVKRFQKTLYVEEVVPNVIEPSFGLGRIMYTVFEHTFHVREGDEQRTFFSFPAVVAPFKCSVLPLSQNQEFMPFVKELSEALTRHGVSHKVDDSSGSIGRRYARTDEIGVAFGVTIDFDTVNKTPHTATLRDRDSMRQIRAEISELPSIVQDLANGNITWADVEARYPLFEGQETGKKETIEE
Method: Thermal shift assays were conducted using a StepOnePlus 7 Flex Real-Time Cycler (Applied Biosystems, Waltham, MA, USA). The Protein Thermal Shift™ Kit dye from Thermo Fisher Scientific was employed to monitor the thermal stability of the protein by binding to its exposed hydrophobic regions. In each well of a 96-well Optical Reaction Plate (Applied Biosystems), a solution containing 14 μL of protein thermal shift buffer, 2 μL of diluted thermal shift dye (8×), 2 μL small molecule solution at 1 mM, and 2 μL of protein at 1 mg/mL was added. The 96-well polymerase chain reaction plates were then placed in the Life Technologies system and incubated at 25 °C for 10 min. Subsequently, the samples were gradually heated from 25 °C to 95 °C at a rate of 1 °C/min. During the thermal denaturation of the protein, the fluorescence signal of SYPRO orange at 490/530 nm excitation/emission wavelengths was recorded by the instrument at 30 s intervals. The fluorescence signal was continuously monitored and plotted against the temperature, with the midpoint of the protein unfolding transition defined as the melting temperature (Tm). To ensure accuracy, triplicate experiments were performed. The ΔTm represents the shift in Tm value between the GlyRS treated with compounds and the blank control.

GlyRS [2] = target: T1, GlyRS; test: Enzyme inhibition assay (ATP consumption assay); assay type: biochemical; settings: for IC50: ATP consumption assay, mean ± SD
Method: The ATP consumption assay was utilized to assess the enzymatic inhibitory activity of the compounds. The 30 μL reaction mixture consisted of 1 μM GlyRS, 25 μM ATP, 50 μM L-Glycine, 30 mM HEPES pH 7.5, 150 mM NaCl, 30 mM KCl, 40 mM MgCl2, and 0.1% bovine serum albumin (BSA), along with the corresponding concentrations of each compound. The reaction mixture was incubated at room temperature for 15 min. After incubation, 10 μL of the reaction reagent was transferred to a 384-well microplate, and the GlyRS enzyme activity was detected by adding 10 μL of the ATP Assay Kit (#S0026, Beyotime, Shanghai, China). Luminescence measurements were performed using a Synergy HTX multimode microplate Reader (BioTek Inc., Winooski, VT, USA). […]

GlyRS [3] = target: T1, GlyRS; test: Bio-layer interferometry (BLI) binding assay; settings: for Kdis / Kon: immobilized GlyRS
Method: Binding experiments on the GlyRS proteins with various molecules were conducted using an Octet R8 system (ForteBio, Fremont, CA, USA). Purified His-tagged GlyRS proteins (500 μg/mL) were captured using Ni-NTA biosensors (ForteBio, Fremont, CA, USA), resulting in a saturation response of 4–5 nm after 300 s. Subsequently, the biosensors were immersed in diluted molecules (0.625–20 μM in assay buffer) for 120 s to measure the association signal, followed by transfer into Octet buffer to measure the dissociation signal for 100 s. Reference wells containing buffer instead of the tested compounds were included to correct for baseline shifts. A parallel set of Ni-NTA sensors immersed only in buffer served as negative reference controls to correct for nonspecific binding of the compounds to the biosensor surface. The signals were analyzed by a double reference subtraction protocol to deduce nonspecific and background signals and signal drifts caused by biosensor variability. All assays were performed by a standard protocol in 96-well black plates with a total volume of 200 μL/well at 30 °C. The generated data were analyzed using the Octet® Analysis Studio 12.2.2.26 for correction and curve fitting.

[4] = tested on: A/PuertoRico/8/34 (H1N1) (PR8 virus); assay type: cell-based, Influenza A virus
GlyRS [5] = target: T1, GlyRS; test: Limited proteolysis analysis (trypsin, SDS-PAGE); settings: trypsin at different concentrations, 1 h at 37 °C, versus unbound GlyRS
in vitro = assay type: cell-based; settings: human
Method: We then evaluated the antiviral effects of Lycobetaine and Scutellarein. To determine the optimal concentration of the small molecules, we used the CCK-8 assay to evaluate cell viability and estimate the CC50 value of the two drugs in A549 cells. In this experiment, the cells were exposed to varying concentrations of Lycobetaine and Scutellarein, and the CCK-8 reagent was added 24 h after drug treatment.

[6] = 1 μM GlyRS at 20 μM compounds, average of two independent experiments
[7] = BLI, immobilized His-tagged GlyRS, mean ± SD, three repeats, read-out: KD

Q: With COC(=O)C1=C(C)NC(C)=C(C(=O)OCC(C)C)C1c1ccccc1[N+](=O)[O-] (centres unmarked) [Nisoldipine, reference compound] as the compound, how does the “△Tm” value (GlyRS [1]) read?
A: The value was −8.96 °C.

Q: And the “Relative Enzyme Activity” value (GlyRS [2]; [6])?
A: The value was 67.3%.

Q: And the Kdis (GlyRS [3]; BLI)?
A: Its Kdis is 400 ± 94.49 (1/s) × 10^−2.

Q: What about the Kon (GlyRS [3]; BLI) of the same compound?
A: Its Kon is 86.16 ± 27.50 (1/MS) × 10^3.

Q: What about the Kd (GlyRS [3]; [7]) of the same compound?
A: The Kd was 47.7 ± 7.18 µM.

Q: With CC(C)c1cc2c(c(O)c1O)[C@@]1(C(=O)O)CCCC(C)(C)[C@@H]1CC2 [Carnosic acid] as the compound, how does the “△Tm” value (GlyRS [1]) read?
A: Its value is −5.9 °C.

Q: And the “Relative Enzyme Activity” value (GlyRS [2]; [6])?
A: Its value is 75.4%.

Q: What about the Kd (GlyRS [3]) of the same compound?
A: The Kd was 14.5 ± 0.19 µM.

Q: What about the Kdis (GlyRS [3]; BLI) of the same compound?
A: Its Kdis is 1.12 ± 0.17 (1/s) × 10^−2.

Q: What about the Kon (GlyRS [3]; BLI) of the same compound?
A: The Kon was 1.13 ± 0.26 (1/MS) × 10^3.

Q: With Cc1c(OCC(F)(F)F)ccnc1C[S+]([O-])c1nc2ccccc2[nH]1 (centres unmarked) [Lansoprazole, reference compound] as the compound, how does the “△Tm” value (GlyRS [1]) read?
A: The value was −5.03 °C.

Q: What about the “Relative Enzyme Activity” value (GlyRS [2]; [6]) of the same compound?
A: Its value is 72.3%.

Q: And the Kdis (GlyRS [3]; BLI)?
A: Its Kdis is 9.25 ± 3.64 (1/s) × 10^−2.

Q: What about the Kon (GlyRS [3]; BLI) of the same compound?
A: The Kon was 7.23 ± 2.14 (1/MS) × 10^3.

Q: And the Kd (GlyRS [3]; [7])?
A: Its Kd is 12.5 ± 1.63 µM.

Q: With C[C@@H]1C[C@H]2[C@@H]3CCC4=CC(=O)C=C[C@]4(C)[C@@]3(Cl)[C@@H](O)C[C@]2(C)[C@@]1(OC(=O)c1ccco1)C(=O)CCl [Mometasone furoate, reference compound] as the compound, how does the “△Tm” value (GlyRS [1]) read?
A: The value was −11.58 °C.

Q: And the “Relative Enzyme Activity” value (GlyRS [2]; [6])?
A: The value was 91.2%.

Q: What about the Kon (GlyRS [3]; BLI) of the same compound?
A: The Kon was 108.8 ± 67.42 (1/MS) × 10^3.

Q: And the Kd (GlyRS [3]; [7])?
A: The Kd was 1.82 ± 0.36 µM.

Q: Which results are given for Oc1cc2c3c(c1)c1cc4c(cc1c[n+]3CC2)OCO4 [Lycobetaine]?
A: △Tm (GlyRS [1]): −13.01 °C; viral infection rate / viral titer [4]: effectively reduced the viral infection rate; Relative Enzyme Activity (GlyRS [2]; [6]): 8.0%; IC50 (GlyRS [2]): 0.11 ± 0.05 µM; Kdis (GlyRS [3]; BLI): 39.73 ± 11.18 (1/s) × 10^−2; Kd (GlyRS [3]; [7]): 43.5 ± 16.4 µM; protein conformation change of GlyRS (distribution of proteolyzed fragments) (GlyRS [5]): alters the protein conformation of GlyRS; CC50 at 24 h (in vitro): 16 ± 0.58 µM

Q: Which results are given for Cc1ccc(S(=O)(=O)NCl)cc1 [Chloramine-T]?
A: △Tm (GlyRS [1]): −5.13 °C; Relative Enzyme Activity (GlyRS [2]; [6]): 86.9%; Kd (GlyRS [3]): 15.1 ± 1.8 µM; Kdis (GlyRS [3]; BLI): 78.19 ± 17.95 (1/s) × 10^−2; Kon (GlyRS [3]; BLI): 52.28 ± 13.31 (1/MS) × 10^3

Q: What does the source list for O=c1cc(-c2ccc(O)cc2)oc2cc(O)c(O)c(O)c12 [Scutellarein]?
A: △Tm (GlyRS [1]): −5.3 °C; viral infection rate / viral titer [4]: effectively reduced the viral infection rate; Relative Enzyme Activity (GlyRS [2]; [6]): 27.3%; IC50 (GlyRS [2]): 2.22 ± 0.19 µM; Kdis (GlyRS [3]; BLI): 1.09 ± 0.11 (1/s) × 10^−2; Kon (GlyRS [3]; BLI): 3.96 ± 1.05 (1/MS) × 10^3; Kd (GlyRS [3]; BLI, mean ± SD, three repeats (Table 2), read-out: KD): 2.88 ± 0.83 µM; protein conformation change of GlyRS (distribution of proteolyzed fragments) (GlyRS [5]): did not show significant differences compared to unbounded GlyRS; CC50 at 24 h (in vitro): 29.4 ± 0.76 µM

Q: Which “△Tm” value (GlyRS [1]) does the source give for CC(=O)N[C@@H](C)C(=O)O [N-Acetyl-L-alanine] here?
A: The value was 5.96 °C.

Q: What about the “Relative Enzyme Activity” value (GlyRS [2]; [6]) of the same compound?
A: The value was 88.1%.

Q: What about the Kdis (GlyRS [3]; BLI) of the same compound?
A: The Kdis was 560 ± 194 (1/s) × 10^−2.

Q: What about the Kon (GlyRS [3]; BLI) of the same compound?
A: Its Kon is 396.20 ± 85.48 (1/MS) × 10^3.

Q: And the Kd (GlyRS [3]; [7])?
A: Its Kd is 24.9 ± 4.33 µM.

Q: Which results are given for COC[C@H]1C[C@@H](c2nc(-c3ccc4c(c3)COc3cc5c(ccc6nc([C@@H]7CC[C@H](C)N7C(=O)[C@@H](NC(=O)OC)C(C)C)[nH]c65)cc3-4)c[nH]2)N(C(=O)[C@H](NC(=O)OC)c2ccccc2)C1 [Velpatasvir, reference compound]?
A: △Tm (GlyRS [1]): −5.4 °C; Relative Enzyme Activity (GlyRS [2]; [6]): 78.5%; Kdis (GlyRS [3]; BLI): 18.46 ± 0.98 (1/s) × 10^−2; Kon (GlyRS [3]; BLI): 15.80 ± 0.71 (1/MS) × 10^3; Kd (GlyRS [3]; [7]): 11.7 ± 1.13 µM

Q: For Oc1c(I)cc(I)c2cccnc12 [Iodoquinol, reference compound], which “△Tm” value (GlyRS [1]) is on record?
A: The value was −11.97 °C.

Q: What about the Relative Enzyme Activity (GlyRS [2]; Figure 5K, bars A-J correspond to the compounds of panels A-J) of the same compound?
A: The Relative Enzyme Activity was 72.0%.

Q: What about the Kdis (GlyRS [3]; BLI) of the same compound?
A: Its Kdis is 2.23 ± 0.49 (1/s) × 10^−2.

Q: What about the Kon (GlyRS [3]; BLI) of the same compound?
A: The Kon was 3.10 ± 0.51 (1/MS) × 10^3.

Q: What about the Kd (GlyRS [3]; [7]) of the same compound?
A: Its Kd is 7.14 ± 0.41 µM.
